SMILES strings stand for the structures.

Assay [1] concerns the target T1, Cytohesin-3 (Homo sapiens) (UniProt O43739).
T1 sequence (whole entry): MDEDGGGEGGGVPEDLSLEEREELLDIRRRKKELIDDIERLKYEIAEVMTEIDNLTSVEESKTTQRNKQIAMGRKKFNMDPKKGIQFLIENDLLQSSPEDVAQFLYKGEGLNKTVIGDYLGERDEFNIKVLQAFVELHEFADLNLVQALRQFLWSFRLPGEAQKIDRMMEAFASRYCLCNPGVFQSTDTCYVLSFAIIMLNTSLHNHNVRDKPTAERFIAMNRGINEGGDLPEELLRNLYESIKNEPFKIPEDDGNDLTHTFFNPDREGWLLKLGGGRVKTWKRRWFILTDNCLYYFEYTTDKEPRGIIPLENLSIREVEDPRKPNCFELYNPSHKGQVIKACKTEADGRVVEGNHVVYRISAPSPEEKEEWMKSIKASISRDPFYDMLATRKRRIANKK
Put plainly: Inhibition of C-terminal 6xHis-tagged Grp1 PH domain (unknown origin) expressed in Escherichia coli BL21(DE3) RIL assessed as inhibition of interaction with PtdIns(3,4,5)P3 at 500 uM after 15 mins by SPR analysis relative to control. A general note: In SPR one partner is held on a chip, and binding of the other changes the refractive index at the surface.

In a further assay the target is T2, Epsin-1 (Homo sapiens) (UniProt Q9Y6I3).
T2 sequence (whole entry): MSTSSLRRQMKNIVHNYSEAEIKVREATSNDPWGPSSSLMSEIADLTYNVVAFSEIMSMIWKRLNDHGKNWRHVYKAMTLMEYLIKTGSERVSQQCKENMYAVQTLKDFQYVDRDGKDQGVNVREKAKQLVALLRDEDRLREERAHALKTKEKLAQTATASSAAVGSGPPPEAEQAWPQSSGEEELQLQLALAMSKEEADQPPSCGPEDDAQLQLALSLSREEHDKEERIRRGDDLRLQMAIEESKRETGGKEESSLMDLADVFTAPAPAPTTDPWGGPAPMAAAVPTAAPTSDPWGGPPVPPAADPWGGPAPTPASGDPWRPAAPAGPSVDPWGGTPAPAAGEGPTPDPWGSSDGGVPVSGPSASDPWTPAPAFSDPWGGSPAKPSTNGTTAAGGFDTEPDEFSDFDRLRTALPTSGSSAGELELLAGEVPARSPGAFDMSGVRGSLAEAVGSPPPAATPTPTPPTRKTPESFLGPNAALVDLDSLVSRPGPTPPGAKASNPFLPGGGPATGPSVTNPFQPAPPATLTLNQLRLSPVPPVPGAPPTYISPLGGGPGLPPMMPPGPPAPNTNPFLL
In words: Inhibition of C-terminal 6xHis-tagged epsin-1 ENTH domain (unknown origin) expressed in Escherichia coli BL21(DE3) RIL assessed as inhibition of interaction with PtdIns(4,5)P2 at 100 uM after 15 mins by SPR analysis relative to control.

Another assay deals with T3, Cytohesin-3 (Homo sapiens, UniProt O43739).
T3 sequence (O43739 whole entry): T1 sequence (whole entry)
Put plainly: Inhibition of recombinant C-terminal 6xHis-tagged Grp1 PH domain (unknown origin) expressed in Escherichia coli BL21(DE3) RIL assessed as inhibition of interaction with PtdIns(3,4,5)P3 after 15 mins by SPR analysis.

Turning to `CC1(C(=O)O)CC([PH](=O)O)=NN1` (stereo unspecified), the inhibition in assay [1] was 63%; on Epsin-1 (Homo sapiens) it was 8%.
For `O=C1[C@@H]2C[C@@H]3CC[C@@]2(O3)[C@@H](P(=O)(O)O)N1Cc1ccccc1` the same measures were 0% and 13%.
For `CCOP(=O)(O)c1cc(C(=O)O)[nH]n1`, the inhibition in assay [1] came out at 36%; at Epsin-1 (Homo sapiens), 57%.
The like results for `COP(=O)(O)C1=NNC(C)(C(=O)O)C1` (stereo unspecified) were, in that order, 48% and 8.3%.
As to `O=C(O)c1cc(P(=O)(O)O)n[nH]1`, the results for the inhibition (in assay [1]; on Epsin-1 (Homo sapiens)) were 77% and 61%, respectively. For the same molecule, the IC50 on Cytohesin-3 was 38 µM.

A word on the inhibition: it is the relative decrease from the control value, in per cent. One may read the IC50 as the concentration that inhibits the measured activity by half.

The record behind these values is ChEMBL document CHEMBL3259532, “Elucidation of different inhibition mechanism of small chemicals on PtdInsP-binding domains using in silico docking experiments” (Bioorg Med Chem Lett, 2014).
